Experimental data from US20080207450A1, “Method of Substantially Preventing or Inhibiting Summer Bentgrass Decline” (priority 2007, published 2008).

Test system: Creeping bentgrass
Experiment: Outdoor bentgrass bed exposed to elevated atmospheric carbon dioxide over summer; visual quality and root depth
Assay type: in vivo, Agrostis stolonifera
Settings: about 700 ppm carbon dioxide from daylight until dark, July and August
Experimental: In the fall, the inventors established an outdoor bed of bentgrass in Lincoln Parish, La. This region has an average daily high temperature in July and August of 93° F. (www.enlou.com/econ/lincoln_econ.htm). The bed of bentgrass established by the inventors was a randomized block comprising three varieties of Creeping bentgrass: Penn A1 (Agrostis stolonifera ‘Penn A-1’), Penn A2, (Agrostis stolonifera ‘Penn A-2’) and Penn A4 (Agrostis stolonifera ‘Penn A-4’). The bentgrass bed was maintained over the winter. During the following July and August, the inventors constructed a conduit system through which carbon dioxide was pumped over a portion of the bentgrass bed (test zone). The conduit system comprised a plurality of hollow PVC pipes, each pipe having an approximate length of 72 inches and an approximate diameter of ¾ of an inch. Several of the pipes were affixed to each other to form the perimeter of a support platform having a rectangular shape. The remaining pipes were arranged in a parallel fashion and affixed within the support platform. […] The carbon dioxide concentrations in both zones were monitored via a standard, commercially available gas analyzer. At the end of August, both the treated and non-treated areas of the bentgrass were assayed visually for quality and also measured for root-depth.

## O=C=O [carbon dioxide]
Sample root from test zone, measured at end of August
  length of sample root: approximately 10.75 inches
Test zone, Lincoln Parish, La., assayed at end of August, varieties Penn A1, A2, A4
  visual quality of bentgrass: did not experience a loss in quality
